In patent EP0979653A1, “REMEDY FOR CHRONIC FATIGUE SYNDROME” (KANEBO, LTD., priority 1996, dated 1998):
Where a name gives a salt, the structure may show the parent alone.

Legend:
patients with CFS = experiment: Questioning of patients with CFS about lassitude, weakness and psychoneurotic symptom; assay type: in vivo, human; conditions: 100 mg intravenously daily for 14 days
Method: (§1) An injection containing 100 mg of a test compound was intravenously administered to two patients with CFS (A, B), continuously, for 14 days. The measurement of DHAS concentration in plasma was conducted before administration and 13 hours after administration with respect to the first and second days, while the measurement was conducted before administration with regard to the third, fifth, eighth, eleventh and fourteenth days. On the fourteenth day from the day on which first administration was conducted, the patients were questioned about lassitude, weakness and psychoneurotic symptom.

^51Cr-labelled K562 = experiment: Natural killer (NK) activity of patient B, cytotoxic activity against 51Cr-labelled target cells; assay type: in vivo, human
Method: as §1
With regard to the patient B, a natural killer (NK) activity was measured after administration on the first day and before administration on the fifteenth day. The measurement of the NK activity was conducted in accordance with the method described in Later Biological Experimental Course, No. 5, Process for Study of Immunobiochemistry (Incorporation of The Japanese Biochemistry Society ed., published by Tokyo Kagaku Dojin Co.), page 186. That is, the NK activity was measured by using, as an indication, a cytotoxic activity determined by using ^51Cr-labelled K562 as a target cell. Incidentally, a ratio of effector cell to target cell (E/T ratio) was set at 10:1 or 20:1.

[1] = Measurement of DHAS concentration in plasma of patients with CFS given the injection intravenously; assay type: in vivo; conditions: human, iv, 100 mg, 100 mg intravenously daily for 14 days; for concentration at 13 h: 13 hours after administration; for concentration at 48 h / concentration at 72 h / concentration at 120 h / concentration at 192 h / concentration at 264 h / concentration at 336 h: before administration; for concentration at 72 h: 3 days; for concentration at 120 h: 5 days; for concentration at 192 h: 8 days; for concentration at 264 h: 11 days; for concentration at 336 h: 14 days
Method: as §1

C[C@]12CC[C@H](OS(=O)(=O)O)CC1=CC[C@@H]1[C@@H]2CC[C@]2(C)C(=O)CC[C@@H]12 [Sodium salt of DHAS, dehydroepiandrosterone sulfate]
Degree of improvement on the fourteenth day Lassitude (patients with CFS; patient A): improved | Degree of improvement on the fourteenth day Psychoneurotic symptom (patients with CFS; patient A): Improved | Degree of improvement on the fourteenth day Weakness (patients with CFS; patient A): Improved | Degree of improvement on the fourteenth day Lassitude (patients with CFS; patient B): improved | Degree of improvement on the fourteenth day Psychoneurotic symptom (patients with CFS; patient B): Improved | Degree of improvement on the fourteenth day Weakness (patients with CFS; patient B): Improved | NK activity (%) (^51Cr-labelled K562; E/T ratio 10:1, after administration on the fourteenth day (before administration on the first day: 7.2)): 12.1% | NK activity (%) (^51Cr-labelled K562; E/T ratio 20:1, after administration on the fourteenth day (before administration on the first day: 13.7)): 18.5% | concentration at 13 h ([1]; patient A, 1 day): 6360 ng/mL | concentration at 13 h ([1]; patient A, 2 days): 6340 ng/mL | concentration at 48 h ([1]; patient A, 2 days): 2460 ng/mL | concentration at 72 h ([1]; patient A): 2460 ng/mL | concentration at 120 h ([1]; patient A): 2160 ng/mL | concentration at 192 h ([1]; patient A): 2140 ng/mL | concentration at 264 h ([1]; patient A): 2110 ng/mL | concentration at 336 h ([1]; patient A): 3000 ng/mL | concentration at 13 h ([1]; patient B, 1 day): 8900 ng/mL | concentration at 13 h ([1]; patient B, 2 days): 7650 ng/mL | concentration at 48 h ([1]; patient B, 2 days): 2680 ng/mL | concentration at 72 h ([1]; patient B): 2820 ng/mL | concentration at 120 h ([1]; patient B): 4140 ng/mL | concentration at 192 h ([1]; patient B): 2050 ng/mL | concentration at 264 h ([1]; patient B): 2480 ng/mL | concentration at 336 h ([1]; patient B): 2800 ng/mL
